# PubChem BioAssay (NCI)
# Values joined by “and” are separate entries in the source; they are usually repeats but may differ in a detail not shown here. Identical values can stand only once.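 Five compound concentrations were applied to cells in 96-well plates for 48 hours; endpoints were derived by simple linear interpolation of the resulting dose-response curve. Here, GI50 denotes the concentration required for 50% inhibition of growth. At the TGI there is no net growth.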
# Experiments:
# Assay in all cases: NCI anticancer screen, dose series, 48 h
# BT-549 breast = tested on: BT-549 breast
# HOP-62 NSCLC = tested on: HOP-62 NSCLC
# HS 578T breast = tested on: HS 578T breast
# MDA-MB-231 breast = tested on: MDA-MB-231 breast
# NCI-H23 lung = tested on: NCI-H23 lung
# NCI-H522 lung = tested on: NCI-H522 lung
# SF-295 CNS = tested on: SF-295 CNS
# SK-MEL-28 melanoma = tested on: SK-MEL-28 melanoma
# TK-10 renal = tested on: TK-10 renal
# U251 CNS = tested on: U251 CNS
Compound,GI50 (BT-549 breast),TGI (BT-549 breast),GI50 (HOP-62 NSCLC),TGI (HOP-62 NSCLC),GI50 (HS 578T breast),TGI (HS 578T breast),GI50 (MDA-MB-231 breast),TGI (MDA-MB-231 breast),GI50 (NCI-H23 lung),TGI (NCI-H23 lung),GI50 (NCI-H522 lung),GI50 (SF-295 CNS),TGI (SF-295 CNS),GI50 (SK-MEL-28 melanoma),TGI (SK-MEL-28 melanoma),GI50 (TK-10 renal),TGI (TK-10 renal),GI50 (U251 CNS),TGI (U251 CNS),TGI (NCI-H522 lung)
COc1ccc(Cc2cnc(NC(=O)c3ccc4c(c3)OCCO4)s2)cc1,0.0357 µM,> 49.5 µM,0.0602 µM,> 100 µM,0.0311 µM,> 76 µM,0.0379 µM,22.6 µM,0.0537 µM,> 100 µM,< 0.0125 µM,0.0242 µM,20.8 µM,3.75 µM,> 83.8 µM,0.406 µM,35.3 µM,0.0388 µM,> 85.8 µM,
Nc1nc(N)nc(CCCc2nc(N)nc(N)n2)n1,,> 100 µM,,> 100 µM,,> 100 µM,,> 100 µM,,> 100 µM,,,> 100 µM,,> 100 µM,,> 100 µM,,> 100 µM,> 100 µM
Nc1ccc2[nH]cc(CCC(=O)O)c2c1,,> 100 µM,,> 100 µM,,> 100 µM,,> 100 µM,,> 100 µM,,,> 100 µM,,> 100 µM,,> 100 µM,,> 100 µM,> 100 µM
Clc1cc(Cl)cc(Nc2ccc3cc(OCCCN4CCOCC4)ccc3n2)c1,2.65 µM,9.44 µM,,,1.99 µM,5.43 µM,1.81 µM,4.27 µM,,,2.08 µM,1.66 µM,3.65 µM,,,2.88 µM,8.21 µM,,,5.22 µM
COC(=O)CCC1=C(CC(=O)OC)C(C)=N/C1=C\c1[nH]c(-c2ccc[nH]2)cc1OC,6.49 µM,21.6 µM,8.56 µM,24.2 µM,4.09 µM,18.7 µM,2.37 µM,11.6 µM,4.42 µM,21 µM,1.81 µM,3.25 µM,15.1 µM,12.3 µM,25 µM,3.58 µM,16.6 µM,2.48 µM,12.6 µM,3.97 µM
CC1=C(C(=O)Nc2ccccc2)C(c2ccc(C3C(C(=O)Nc4ccccc4)=C(C)NC(C)=C3C(=O)Nc3ccccc3)cc2)C(C(=O)Nc2ccccc2)=C(C)N1,,8.67 µM,,10.6 µM,,16.2 µM,,13.4 µM,,8.65 µM,,,7.88 µM,,3.64 µM,,18.3 µM,,3 µM,3.14 µM
O=C1CSC(c2ccc(-c3nc4ccccc4s3)cc2)=N1,36.2 µM,76.8 µM,43.7 µM,> 100 µM,20.2 µM,59.7 µM,24.1 µM,> 100 µM,,,32.9 µM,20.9 µM,> 100 µM,87.2 µM,> 100 µM,17.5 µM,65.1 µM,28 µM,> 100 µM,96.2 µM
O=C(NO)c1ccc(CN(c2cnccn2)c2cnccn2)cc1,13.8 µM,29.9 µM,15.4 µM,34.8 µM,23.3 µM,96.8 µM,22.3 µM,63.4 µM,,,4.19 µM,14.8 µM,33.4 µM,11 µM,36.4 µM,11.3 µM,42 µM,7.74 µM,21.4 µM,18 µM
Nc1nc(N)c2cc(CNc3ccc(C(=O)NC(CC(=O)O)C(=O)O)c(Cl)c3)ccc2n1 (stereo not drawn),> 500 µM,> 500 µM,0.308 µM and 0.05 µM,> 500 µM,,> 500 µM,,> 500 µM,0.05 µM,64 µM and 491 µM,342 µM,0.05 µM,> 500 µM,,> 4.64 µM,> 500 µM,> 500 µM,,,> 500 µM
C=CCN1CC2CON(C(=O)C(OC)(c3ccccc3)C(F)(F)F)C2C1C(C)C (stereo not drawn),30.1 µg/mL,,,,37.4 µg/mL,,41.4 µg/mL,,37.4 µg/mL,,27.5 µg/mL,35.7 µg/mL,,52.9 µg/mL,,99.3 µg/mL,,29.8 µg/mL,,78.8 µg/mL
COc1ccc(/C=C(/c2ccccc2)[N+](=O)[O-])cc1,1.42 µM,2.88 µM,1.82 µM,3.79 µM,2.4 µM,7.7 µM,1.59 µM,3.09 µM,1.74 µM,3.63 µM,1.65 µM,2.29 µM,5.22 µM,1.57 µM,3.19 µM,1.98 µM,3.93 µM,1.61 µM,3.21 µM,4.16 µM
CCCCCCCCCCN1CCC(N2CCCCC2)CC1,3.62 µM,16.1 µM,2.38 µM,7.64 µM,2.06 µM,6.25 µM,1.3 µM,3.26 µM,3.35 µM,14.5 µM,1.93 µM,1.96 µM,4.2 µM,1.78 µM,3.41 µM,2.08 µM,5.71 µM,1.51 µM,4.47 µM,5.54 µM
Nc1ccccc1SC1CC(=O)N(c2ccc(Cl)c(Cl)c2)C1=O (stereo not drawn),62.2 µM,> 100 µM,21 µM,66.7 µM,12.5 µM,49.5 µM,17.9 µM,> 100 µM,23.8 µM,> 100 µM,19.4 µM,10.1 µM,> 100 µM,45.4 µM,> 100 µM,20 µM,53 µM,21.1 µM,> 100 µM,> 100 µM
O=C(O)C12CC3(C(=O)O)CC(C(=O)O)(CC(C(=O)O)(C1)C3=O)C2=O,,> 100 µM,,> 100 µM,,> 100 µM,,> 100 µM,,> 100 µM,,,> 100 µM,,> 100 µM,,> 100 µM,,> 100 µM,> 100 µM
CCN(CC)CCNC(=O)c1ccc(C)c(OCc2ccccc2)c1[N+](=O)[O-],,> 50.6 µM,,> 75.4 µM,,> 63.6 µM,,> 100 µM,,> 100 µM,,,55.8 µM,,34.2 µM,,98.1 µM,,> 84.1 µM,76.5 µM
CC/C=C/C/C=C/C/C=C/C/C=C/C/C=C/C/C=C/CCC(=O)Nc1ccn([C@@H]2O[C@H](CO)[C@@H](O)C2(F)F)c(=O)n1,0.681 µM,19.8 µM,0.0293 µM,6.55 µM,46.4 µM,> 76.9 µM,7.65 µM,28.9 µM,0.019 µM,9.3 µM,0.261 µM,0.11 µM,19.8 µM,11.5 µM,25.8 µM,39.1 µM,> 66.5 µM,0.0331 µM,18.2 µM,37.7 µM
C=C1CC[C@@H](C(C)C)C[C@@H]2[C@H]([C@H](O)C[C@]2(C)O)[C@@]2(C)CC[C@@H]1O2,27.6 µM,55.1 µM,17.7 µM,31.6 µM,31.5 µM,82.7 µM,13.9 µM,28 µM,20.1 µM,42.7 µM,15.2 µM,14.7 µM,32.3 µM,,,21.7 µM,43.7 µM,16.9 µM,30.5 µM,29.8 µM
Cc1ccc(S(=O)(=O)NC(=O)NC2=NC(C)(C)N(c3ccc(Cl)c(Cl)c3)C(N)=N2)cc1,,> 100 µM,,> 100 µM,,> 100 µM,,> 100 µM,,> 100 µM,,,> 100 µM,,> 100 µM,,> 100 µM,,> 100 µM,> 100 µM
NC(=S)N/N=C/c1cc(-c2cccc(N)c2)ccn1,3.52 µM,> 100 µM,2.44 µM,> 36.9 µM,0.585 µM,> 57.4 µM,3.6 µM,> 100 µM,1.91 µM,> 100 µM,0.202 µM,1.66 µM,31 µM,4.35 µM,> 100 µM,1.2 µM,44 µM,0.783 µM,> 38.8 µM,0.564 µM
CCCCCc1ccc(S(=O)(=O)Nc2cc(-c3csc(NC(C)=O)n3)ccc2N2CCN(C)CC2)cc1,4.98 µM,10.1 µM,5.51 µM,12.2 µM,5.12 µM,13.4 µM,4.75 µM,9.91 µM,4.78 µM,9.53 µM,6.35 µM,4.9 µM,9.59 µM,3.46 µM,7.49 µM,6.09 µM,11.7 µM,3.78 µM,8.93 µM,13 µM
O=C(NCc1ccc(S(=O)(=O)c2cc(F)cc(F)c2)cc1)c1ccc2nccn2c1,0.296 µM,12.1 µM,23 µM,74 µM,20.5 µM,80.1 µM,20 µM,> 100 µM,> 48.7 µM,> 100 µM,< 0.01 µM,15.8 µM,> 95.3 µM,> 39.8 µM,98.1 µM,36.3 µM,> 62.9 µM,6.01 µM,> 56.7 µM,43 µM
CCN(CC)c1cc2oc3cc(N)cc(=N)c-3nc2cc1C,10.6 µM,27.4 µM,2.91 µM,9.26 µM,2.18 µM,7.25 µM,6.04 µM,> 100 µM,2.11 µM,17.9 µM,2.31 µM,1.85 µM,5.19 µM,5.7 µM,27 µM,4.9 µM,23.1 µM,3.13 µM,14.7 µM,6.05 µM
O=C(Nc1ccc(Cl)c(Cl)c1)Nc1ccccc1O,24.9 µM,91.3 µM,10.6 µM,24.1 µM,6.69 µM,37.5 µM,10 µM,34.2 µM,2.98 µM,16.1 µM,2.65 µM,3.06 µM,11.3 µM,12.5 µM,27.3 µM,6.41 µM,28 µM,6.41 µM,25.3 µM,15.5 µM
COc1ccc2c(c1)C(C)Cc1c(ncnc1-n1cnc3cc(C)ccc31)N2C (stereo not drawn),0.184 µM,7.12 µM,0.0707 µM,18.2 µM,0.0686 µM,31.7 µM,0.229 µM,18.6 µM,0.4 µM,23.4 µM,0.0544 µM,0.0317 µM,11 µM,0.575 µM,19.8 µM,,,0.148 µM,11.6 µM,0.325 µM
CO/N=C(/C)c1cccc(Nc2cc(-c3ccccc3)nc3ccc(OC)cc23)c1,22.4 µM,46.6 µM,2.37 µM,6.17 µM,27.6 µM,64.3 µM,3.49 µM,17.8 µM,6.08 µM,27.4 µM,17.8 µM,3.82 µM,21.1 µM,28.6 µM,66.8 µM,3.32 µM,12.8 µM,6.62 µM,23.7 µM,> 100 µM
CC[C@@]1(O)C(=O)OCc2c1cc1n(c2=O)Cc2c-1nc1cc(F)c(C)c3c1c2[C@@H](N)CC3,< 0.01 µM,0.199 µM,< 0.01 µM,0.159 µM,0.735 µM,> 100 µM,0.162 µM,> 100 µM,< 0.01 µM,0.0638 µM,< 0.01 µM,< 0.01 µM,0.0915 µM,,,0.0725 µM,,< 0.01 µM,> 100 µM,0.531 µM
Cc1nn(C(=O)c2ccc(Cl)cc2)c2c1C(c1ccc(O)cc1)SC(N)=N2 (stereo not drawn),,> 10 µM,,> 10 µM,,> 10 µM,,> 10 µM,,> 10 µM,,,> 10 µM,,> 10 µM,,> 10 µM,,> 10 µM,> 10 µM
Cc1ncc([N+](=O)[O-])n1CCNS(=O)(=O)CCCn1ncnc1[N+](=O)[O-],,> 100 µM,,> 100 µM,,> 100 µM,,> 100 µM,,> 100 µM,,,> 100 µM,,> 100 µM,,> 100 µM,,> 100 µM,> 100 µM
Cn1cc(-c2ccc(-c3cncc(Cl)c3N3CCC4(CCNC4=O)CC3)cc2)cn1,26 µM,> 100 µM,39.6 µM,> 100 µM,80.1 µM,> 100 µM,> 100 µM,> 100 µM,> 100 µM,> 100 µM,26.4 µM,66.7 µM,> 100 µM,79.2 µM,> 100 µM,,,51.3 µM,> 100 µM,> 100 µM
